Source: patent publication US20240342121A1, “THE USE OF BETA-HYDROXYBUTYRATES FOR THE TREATMENT OR PREVENTION OF ANEURYSMS AND DISSECTIONS” (priority 2021, published 2024)
Entries after “also recorded” stand apart in the source; their conditions may differ.

System: angiotensin II (AII)-induced AAA
Test: AII-induced AAA mouse model, post-treatment
Type: in vivo
Text: To determine if senescence is a major cause of aneurysm development, the association between senescence and aneurysms using the angiotensin II (AII)-induced AAA model was investigated. Mice were infused AII for four weeks using osmotic mini-pump implantation into Apoe^−/− transgenic mouse.
To investigate the therapeutic potential of ketotherapy for abdominal aortic aneurysm (AAA), Ketogenic-diet (KD) and Ketone-ester (KE) were provided to angiotensin II (AII)-induced mouse model of AAA (FIG. 6). […] After completing AII infusion, the mice were post-treated with KD and KE for two to four weeks.
To investigate the time-dependent reduction of aorta diameter, the inner diameter of the aorta using ultrasound analysis was measured.

With `C[C@@H](O)CC(=O)O` [βHB, (R)-3-Hydroxybutyrate] the “TUNEL assay, apoptosis of senescent plaque in the aneurysm” value (FIG. 2H) was “induced targeted apoptosis of senescent plaque”, the “abdominal aorta stiffness, Pulse Wave Velocity (PWV)” value (FIG. 3H, FIG. 18A) was “ameliorated vascular stiffness; also recorded: reversed aneurysm-associated aortic stiffness” and the “KβHB modified protein in abdominal aorta” value (in vivo, immunofluorescent staining, FIG. 15B) was “increases KβHB modified protein in nuclear”. For the same compound, the “AAA rate after post-treating” value (incidence of AAA by angiotensin II infusion 67%, n=10, FIG. 9D) was 47%, the “AAA on whole aorta images” value (injected every other day for two weeks, FIG. 2D) was “successfully rescued” and the “myofibroblast, SM α-Actin and FSP co-staining in aortic wall” value (post-treatment, FIGS. 17A-17B) was “increases”.
